Target: T1, GPX4 (Homo sapiens, UniProt P36969)
T1 sequence (P36969 1-170 isoform P36969-2): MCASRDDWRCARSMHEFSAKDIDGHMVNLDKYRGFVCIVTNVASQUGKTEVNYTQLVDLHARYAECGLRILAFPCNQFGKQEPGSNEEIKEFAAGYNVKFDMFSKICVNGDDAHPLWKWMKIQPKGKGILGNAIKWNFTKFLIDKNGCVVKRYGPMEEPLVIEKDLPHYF
Assay: In-cell western (ICW) GPX4 degradation in HT1080 cells
Assay type: cell-based
Set-up: determine the changes in the endogenous levels of GPX4 by western blot assay; endogenous in cells; host or cells: HT1080 fibrosarcoma cells, including siRNA-knockdown derivatives
Conditions: 24 h
Protocol: To further confirm this degradation efficacy, an in‐cell western (ICW) assay, a quantitative immunofluorescence cell‐based technique, was performed to quantify the relative expression level of GPX4 after treatment with GDAz‐3 for 24 h. […] Given the promising GPX4 degradation activity of GDAz‐3, we extended our evaluation to additional ferroptosis‐sensitive cell lines, including triple‐negative breast cancer cells (MDA‐MB‐231) and melanoma cells (mouse B16‐F10). […] Based on the observation that GDAz‐3 was particularly effective in HT1080 cells, we selected this cell line for further degradation mechanism and ferroptosis pharmacodynamics studies.
HT1080 cells were seeded into 96‐well plates at a density of 1 × 10⁴ cells per well and cultured overnight. After 24‐h treatment with the drugs, the culture medium was removed, and 150 µL of 4% paraformaldehyde was added to each well to fix the cells at 4 °C for 20 min. The paraformaldehyde was removed, and 150 µL of 0.2% Triton X‐100 was added to each well. The cells were permeabilized by shaking at room temperature for 30 min. After removing the Triton X‐100, 50 µL of 1% BSA buffer was added to each well, and shaken at room temperature for 90 min. […] The PBS was discarded, and the plates were read using a Typhoon biomolecular imager (Cytiva, GPX4: wavelength 680 nm; GAPDH: 800 nm).

Structure (SMILES): COc1ccc(-c2nc(-c3cc(C(F)(F)F)cc(C(F)(F)F)c3)n(Cc3ccc(C(=O)NCCOCCOCCOCCn4cc(COc5ccc(N(C(=O)CCl)C(C(=O)NCCc6ccccc6)c6cccs6)cc5Cl)nn4)cc3)c2-c2ccc(OC)cc2)cc1 (stereo not shown) [GDAz-3, 4-((2-(3,5-bis(trifluoromethyl)phenyl)-4,5-bis(4-methoxyphenyl)-1H-imidazol-1-yl)methyl)-N-(2-(2-(2-(2-(4-((2-chloro-4-(2-chloro-N-(2-oxo-2-(phenethylamino)-1-(thiophen-2-yl)ethyl)acetamido)phenoxy)methyl)-1H-1,2,3-triazol-1-yl)ethoxy)ethoxy)ethoxy)ethyl)benzamide]
- DC50: 250 nM
